Laboratory results taken from the supplement of paper PMC10307832.

What was measured:
Assay in all cases: relative viability (nuclei count vs DMSO), 5 days (fraction); higher = more cells survive
[1] = tested on: A-427
How it was run: (§1)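 Relative viability was taken as the ratio of nuclei in treated wells to nuclei in vehicle wells. Lung cancer cell lines in 1536-well plates received compounds by pin tool one day after seeding, either one drug alone or a fixed anchor-drug dose plus five library-drug doses (not always all listed) in √10 steps. Nuclei were counted on 4× images after 5 days of treatment, and values are medians of duplicate plates.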

[2] = tested on: RERF-LC-KJ
How it was run: as §1

[3] = tested on: NCI-H1975
How it was run: as §1

[4] = tested on: NCI-H2228
How it was run: as §1

[5] = tested on: NCI-H2126
How it was run: as §1

[6] = tested on: NCI-H358
How it was run: as §1

[7] = tested on: NCI-H1915
How it was run: as §1

[8] = tested on: SW 1573
How it was run: as §1

[9] = tested on: NCI-H647
How it was run: as §1

[10] = tested on: NCI-H2347
How it was run: as §1

[11] = tested on: HCC-78
How it was run: as §1

[12] = tested on: LC-2-ad
How it was run: as §1

[13] = tested on: NCI-H522
How it was run: as §1

[14] = tested on: LXF-289
How it was run: as §1

[15] = tested on: HCC-15
How it was run: as §1

[16] = tested on: HOP-62
How it was run: as §1

[17] = tested on: NCI-H2342
How it was run: as §1

[18] = tested on: NCI-H1734
How it was run: as §1

[19] = tested on: NCI-H1755
How it was run: as §1

[20] = tested on: SK-LU-1
How it was run: as §1

[21] = tested on: PC-3 [JPC-3]
How it was run: as §1

[22] = tested on: NCI-H1792
How it was run: as §1

Structure (SMILES): CC(=O)O[C@@]12CO[C@@H]1C[C@H](O)[C@@]1(C)C(=O)[C@H](O)C3=C(C)[C@@H](OC(=O)[C@H](O)[C@@H](NC(=O)OC(C)(C)C)c4ccccc4)C[C@@](O)([C@@H](OC(=O)c4ccccc4)[C@H]21)C3(C)C [Docetaxel] + Nc1nc2[nH]cc(CCc3ccc(C(=O)N[C@@H](CCC(=O)O)C(=O)O)cc3)c2c(=O)[nH]1 [Pemetrexed] (partner 0.2 µM)
- relative viability ([1]; first compound 0.0002 µM): 0.886
- relative viability ([1]; first compound 0.000632 µM): 0.946
- relative viability ([1]; first compound 0.002 µM): 0.822
- relative viability ([1]; first compound 0.006325 µM): 0.323
- relative viability ([2]; first compound 0.0002 µM): 0.375
- relative viability ([2]; first compound 0.000632 µM): 0.342
- relative viability ([2]; first compound 0.002 µM): 0.297
- relative viability ([2]; first compound 0.006325 µM): 0.173
- relative viability ([2]; first compound 0.02 µM): 0.157
- relative viability ([3]; first compound 0.0002 µM): 0.286
- relative viability ([3]; first compound 0.000632 µM): 0.277
- relative viability ([3]; first compound 0.002 µM): 0.232
- relative viability ([3]; first compound 0.006325 µM): 0.18
- relative viability ([3]; first compound 0.02 µM): 0.137
- relative viability ([4]; first compound 0.0002 µM): 0.319
- relative viability ([4]; first compound 0.000632 µM): 0.228
- relative viability ([4]; first compound 0.002 µM): 0.154
- relative viability ([4]; first compound 0.006325 µM): 0.146
- relative viability ([4]; first compound 0.02 µM): 0.11
- relative viability ([5]; first compound 0.0002 µM): 0.79
- relative viability ([5]; first compound 0.000632 µM): 0.661
- relative viability ([5]; first compound 0.002 µM): 0.456
- relative viability ([5]; first compound 0.006325 µM): 0.391
- relative viability ([6]; first compound 0.0002 µM): 0.16
- relative viability ([6]; first compound 0.000632 µM): 0.172
- relative viability ([6]; first compound 0.002 µM): 0.164
- relative viability ([6]; first compound 0.006325 µM): 0.155
- relative viability ([6]; first compound 0.02 µM): 0.117
- relative viability ([7]; first compound 0.0002 µM): 0.562
- relative viability ([7]; first compound 0.000632 µM): 0.47
- relative viability ([7]; first compound 0.002 µM): 0.327
- relative viability ([7]; first compound 0.006325 µM): 0.152
- relative viability ([7]; first compound 0.02 µM): 0.108
- relative viability ([8]; first compound 0.0002 µM): 0.557
- relative viability ([8]; first compound 0.000632 µM): 0.478
- relative viability ([8]; first compound 0.002 µM): 0.236
- relative viability ([8]; first compound 0.006325 µM): 0.146
- relative viability ([8]; first compound 0.02 µM): 0.138
- relative viability ([9]; first compound 0.0002 µM): 0.175
- relative viability ([9]; first compound 0.000632 µM): 0.142
- relative viability ([9]; first compound 0.002 µM): 0.103
- relative viability ([9]; first compound 0.006325 µM): 0.122
- relative viability ([9]; first compound 0.02 µM): 0.0856
- relative viability ([10]; first compound 0.0002 µM): 0.422
- relative viability ([10]; first compound 0.000632 µM): 0.446
- relative viability ([10]; first compound 0.002 µM): 0.419
- relative viability ([10]; first compound 0.006325 µM): 0.429
- relative viability ([10]; first compound 0.02 µM): 0.357
- relative viability ([11]; first compound 0.0002 µM): 0.892
- relative viability ([11]; first compound 0.000632 µM): 0.868
- relative viability ([11]; first compound 0.002 µM): 0.88
- relative viability ([11]; first compound 0.006325 µM): 0.889
- relative viability ([11]; first compound 0.02 µM): 0.861
- relative viability ([12]; first compound 0.0002 µM): 0.259
- relative viability ([12]; first compound 0.000632 µM): 0.221
- relative viability ([12]; first compound 0.006325 µM): 0.173
- relative viability ([12]; first compound 0.02 µM): 0.181
- relative viability ([13]; first compound 0.0002 µM): 1.06
- relative viability ([13]; first compound 0.000632 µM): 0.814
- relative viability ([13]; first compound 0.002 µM): 0.737
- relative viability ([13]; first compound 0.006325 µM): 0.636
- relative viability ([13]; first compound 0.02 µM): 0.355
- relative viability ([14]; first compound 0.0002 µM): 0.875
- relative viability ([14]; first compound 0.000632 µM): 0.8
- relative viability ([14]; first compound 0.002 µM): 0.363
- relative viability ([14]; first compound 0.006325 µM): 0.116
- relative viability ([14]; first compound 0.02 µM): 0.0871
- relative viability ([15]; first compound 0.0002 µM): 0.235
- relative viability ([15]; first compound 0.000632 µM): 0.242
- relative viability ([15]; first compound 0.002 µM): 0.262
- relative viability ([15]; first compound 0.006325 µM): 0.273
- relative viability ([15]; first compound 0.02 µM): 0.181
- relative viability ([16]; first compound 0.0002 µM): 0.324
- relative viability ([16]; first compound 0.000632 µM): 0.362
- relative viability ([16]; first compound 0.002 µM): 0.304
- relative viability ([17]; first compound 0.0002 µM): 0.731
- relative viability ([17]; first compound 0.000632 µM): 0.745
- relative viability ([17]; first compound 0.002 µM): 0.584
- relative viability ([17]; first compound 0.006325 µM): 0.495
- relative viability ([17]; first compound 0.02 µM): 0.493
- relative viability ([18]; first compound 0.0002 µM): 0.425
- relative viability ([18]; first compound 0.000632 µM): 0.521
- relative viability ([18]; first compound 0.002 µM): 0.405
- relative viability ([18]; first compound 0.006325 µM): 0.303
- relative viability ([18]; first compound 0.02 µM): 0.239
- relative viability ([19]; first compound 0.0002 µM): 0.545
- relative viability ([19]; first compound 0.000632 µM): 0.438
- relative viability ([19]; first compound 0.002 µM): 0.453
- relative viability ([19]; first compound 0.006325 µM): 0.367
- relative viability ([19]; first compound 0.02 µM): 0.332
- relative viability ([20]; first compound 0.0002 µM): 0.947
- relative viability ([20]; first compound 0.000632 µM): 0.725
- relative viability ([20]; first compound 0.002 µM): 0.535
- relative viability ([20]; first compound 0.006325 µM): 0.337
- relative viability ([20]; first compound 0.02 µM): 0.258
- relative viability ([21]; first compound 0.0002 µM): 1.01
- relative viability ([21]; first compound 0.000632 µM): 0.713
- relative viability ([21]; first compound 0.002 µM): 0.513
- relative viability ([21]; first compound 0.006325 µM): 0.265
- relative viability ([21]; first compound 0.02 µM): 0.195
- relative viability ([22]; first compound 0.0002 µM): 0.764
- relative viability ([22]; first compound 0.000632 µM): 0.533
- relative viability ([22]; first compound 0.002 µM): 0.223
- relative viability ([22]; first compound 0.006325 µM): 0.105
- relative viability ([22]; first compound 0.02 µM): 0.0705
